In patent EP4732839A1, “USE OF COMPOUND IN TREATMENT OF LIVER DISEASES” (priority 2023, dated 2025):

Legend:
hERG potassium channel = hERG potassium channel (Homo sapiens, UniProt Q12809); assay: hERG whole-cell patch-clamp; format: cell-based
From the text: The rapidly activated potassium channel encoded by human ether-a-go-go-related gene (hERG) is an important ion channel involved in the formation of cardiac action potential phase 3 repolarization. Drug-induced blockade of hERG channels can lead to delayed cardiac repolarization, manifested as QT interval prolongation on the electrocardiogram, known as long QT syndrome. Drug-induced delayed ventricular repolarization may, under certain circumstances, trigger fatal arrhythmias-torsade de pointes-type ventricular tachycardia. In this study, the whole-cell patch-clamp technique (the standard method for hERG safety assessment) was employed to evaluate the inhibitory effects of the small-molecule compounds on the hERG potassium channel and to assess the risk of ventricular repolarization toxicity.

[1] = tested on: ISG15, ISG56, Mx1, and Oaslb; assay: Liver safety: qPCR of interferon-related genes in liver tissue; format: in vivo, C57BL/6J wild-type female mice; conditions: dose of 3 mpk (pharmacodynamic dose)
Protocol: (§1) C57BL/6J wild-type female mice (6 weeks old) were randomly grouped. After administration at different doses, whole blood and liver tissues of the mice were separately collected at 1 h, 2 h, and 4 h for detection of a plurality of parameters to evaluate the effect of the drugs on the liver.
(§2) Liver tissues and blood were collected at 1 h, 2 h, and 4 h after single dosing.
(§3) The supernatant was collected and stored (-20 °C); • (3) IFN-α, IP-10, IL-6, and TNF-α were detected using an ELISA kit. • (C) Remaining liver tissue-HE staining and pathological evaluation. • (D) 1/2 blood (whole blood)-liver function parameter detection: AST (aspartate aminotransferase), ALT (alanine aminotransferase/glutamate pyruvate transaminase), ALP (alkaline phosphatase), ALB (albumin), and GGT (γ-glutamyl transferase). • (E) 1/2 blood-serum preparation-reserve for ELISA.

[2] = format: in vivo, C57BL/6J wild-type female mice
Protocol: as §1, §2, §3

[3] = tested on: IFN-α, IP-10, IL-6, and TNF-α; assay: Liver safety: cytokine ELISA in liver tissue; format: in vivo, C57BL/6J wild-type female mice; conditions: 1 h, 2 h, 4 h
Protocol: as §1, §2, §3

in vivo = assay: in vivo
Protocol: C57BL/6 mice, 8 weeks old, female/male, 27, supplier: SPF (Beijing) Biotechnology Co., Ltd.
The body weight of the animals was measured and recorded daily.
All groups were subjected to clinical observations before administration and 1 to 2 h after administration, and additional observations were performed if necessary. Deaths and mortality were checked twice daily. The observations should include, but are not limited to, the following: fur condition, activity, mental status, vomiting, diarrhea, and abnormal secretions around the eyes. All animals should be observed on the day of necropsy, and any abnormal findings should be recorded.
The rectal temperature of all animals was measured and recorded at 0 h before administration and at 2 h, 4 h, 8 h and 24 h after administration.
The experiment was terminated on day 7 after administration. A gross necropsy was performed to examine abdominal and thoracic organs for lesions, and the spleen and liver were collected for weighing.

Hep3B-luc = Hep3B-luc liver orthotopic xenograft mouse model; conditions: Hep3B-luc liver orthotopic tumor model, 3 mg/kg
[4] = Liver tissue distribution after single intragastric administration; conditions: for Mean drug concentration (liver) / Mean drug concentration (plasma) / AUC(0-t) at 24 h: 10 mg/kg single intragastric, ICR mice; for AUC(0-t) at 24 h: in vivo, area under curve at 24 h post-dose
Protocol: The specific regimen was as follows: Before administration, the state of the formulation for administration was inspected, and the homogeneity of the formulation was ensured by vortexing, stirring, or shaking. The theoretical dose for each mouse was calculated according to the following formula. The actual dose for each ICR mouse and the collection time for plasma and tissue samples were required to be recorded in detail in corresponding tables. Theoretical administration volume (mL) = ((Dose(mg⋅kg^−1))/(Concentration of test solution (mg⋅((mL))^−1))) × Animal body weight (kg) [formula]
Plasma sample collection: At each designated time point, about 100 µL of blood was collected from the orbit, and the collected whole blood was placed in an EDTA-K2 anticoagulation tube, inverted several times to mix thoroughly, stored on wet ice, and centrifuged (at 1500 g to 1600 g) for 10 min within 30 min to separate the plasma. The resulting plasma sample was stored at -40 °C to -20 °C for biological sample analysis.
The specific procedures for liver tissue collection were as follows: Liver tissues were collected immediately after whole blood collection. The liver tissues were collected, washed with ice-cold normal saline, dehydrated, weighed, and homogenized in 20% methanol-water at a ratio of 1:5 (w/v). The collection time of tissues and the weight of homogenized tissues were required to be recorded in detail in corresponding tables.
The plasma and various tissue homogenates were stored in a refrigerator at -40 °C to -20 °C for sample analysis. After the experiment was completed, the mice were euthanized by carbon dioxide asphyxiation or cervical dislocation. After the analysis was completed, the samples were returned to the biological sample room, and transferred to an environment at -40 °C to -20 °C for storage according to SOP-SM-001.
The corresponding pharmacokinetic parameters of plasma and liver tissues were calculated using a non-compartmental model in Phoenix WinNonlin 8.0 or later versions, and the area under curve AUC0-t (AUC0-t, the area under the concentration-time curve at 24 h post-dose) was calculated. The liver/plasma drug distribution ratio (RL/P) was then calculated.

in vitro = conditions: human, microsomes, pH 7.4
Protocol: The metabolic stability of the compounds in in vitro liver microsomes was evaluated. The procedures and steps were as follows: At 37 °C, 1 µM of the compounds was incubated in 1 mg/mL liver microsomes. The reaction system was a 0.1 M potassium phosphate buffer (pH 7.4) containing 3 mmol/L MgCl2 and 1 mmol/L NADPH. At the beginning of the reaction, the small molecules and the liver microsomes were pre-incubated at 37 °C for 10 min, and subsequently a cofactor NADPH was added to initiate the metabolic reaction. The reaction was quenched at 0 min, 5 min, 10 min, 20 min, 30 min, and 60 min using three volumes of ice-cold methanol containing an internal standard (200 nM labetalol). After incubation at room temperature for 10 min, the samples were centrifuged at 4000 rpm at 4 °C for 20 min, and the supernatants were collected, diluted with chromatography-grade purified water in a 1:1 ratio, and then subjected to quantitative analysis. […] After a 6-minute chromatographic separation on a C18 column (50 × 2.1 mm; 2.6 µm) under a gradient mobile phase of 0.1% formic acid in water, the peaks corresponding to specified ionic signals were detected. […] The detailed operation process was as follows: • 1) The compound working solution was added to all 96-well reaction plates (T0, T5, T10, T20, T30, and T60) at 10 µL/well, except the blank wells. • 2) The microsomal solution was added to all the reaction wells (T0, T5, T10, T20, T30, T60, and blank wells) at 80 µL/well. • 3) The plates were pre-incubated at 37 °C for 10 min. • 4) After pre-incubation, NADPH was added to each reaction plate at 10 µL/well to initiate the reaction. • 5) At the set end time point, a 4 °C methanol solution (containing an internal standard: 200 nM labetalol) was added to each reaction plate at 300 µL/well to quench the reaction. • 6) Each plate was sealed and shaken for 10 min. • 7) The mixture was shaken well and centrifuged at 4000 rpm at 4 °C for 20 min. • 8) 300 µL of the supernatant was collected, and HPLC-grade water was added at 300 µL/well. The mixture was well mixed and then subjected to LC-MS analysis.
The metabolic half-life (T1/2) and the metabolic clearance rate (CLint(mic)) (µL/min/mg) were calculated using a first-order kinetic equation.

H22-luc = H22-luc orthotopic model, 3 mpk, IG
Protocol: The cells were placed in an incubator at 37 °C with 5% CO2 and passaged every 1 to 2 days depending on the cell density.
The cell concentration (H22-luc, 2.0E8/mL) was adjusted, and the cells were mixed well with Matrigel at a ratio of 1:1. The mixture was placed on ice for subsequent injection experiments, and was mixed thoroughly by shaking with Vortex before use.
• (1) The mice were weighed before surgery and anesthetized by intraperitoneal injection of avertin at 0.15 mL/10 g body weight. […] The needle was inserted into the liver at a 30-degree angle relative to the liver surface. After the needle was inserted, the needle was made parallel to the tabletop and advanced in parallel for about 3 mm. 10 µL of H22-luc cell suspension was slowly injected, and a rapid whitening (white plaque) or turbid translucent vacuolation over most of the liver lobe in the injection area was observed. • (5) After injection, a cotton swab was used to apply slight pressure at the needle insertion site while the needle was slowly withdrawn. The cotton swab was removed until no bleeding was observed. • (6) The liver lobe was gently pushed back into the abdominal cavity, and the muscle layer and skin were sutured.
The experimental data were analyzed using Graphpad Prism 8. The experimental data were expressed as mean ± SD.

[5] = tested on: advanced hepatocellular carcinoma (aHCC); conditions: first-line aHCC; nivolumab 240 mg intravenous drip once every 2 weeks; sorafenib 400 mg oral twice daily; cited from earlier work
[6] = tested on: advanced unresectable HCC; conditions: cited from earlier work
[7] = tested on: Peripheral blood mononuclear cells (hPBMCs); assay: Cytokine secretion after stimulation of PBMCs; conditions: hPBMCs from 3 donors, 24 h of stimulation
hepatitis B virus (HBV) = assay: Anti-hepatitis B virus activity in HBV-infected primary human hepatocytes; format: cell-based, HBV type B; conditions: HBV-infected PHHs, agonist-treated PBMC supernatant (donor 1) or reference compound
Protocol: The culture supernatant from one donor (donor 1) was selected to stimulate HBV-infected primary hepatocytes (PHHs), and interferon α and nucleoside analog entecavir (ETV) were selected as positive controls. The experimental procedures were as follows (FIG. 14a), and the detailed procedures were as follows: On day -1, cryopreserved PHHs were thawed and adjusted to a density of 6 × 10^5 cells/mL, and the PHHs were seeded into a 48-well plate at 0.22 mL/well.
On day 0, the PHHs were infected with HBV type B at 600 GE/cells.
On day 1, the culture medium was replaced with a fresh one, and reference compounds ETV and Peg-IFN-α2a (Pegasys-Roche) were added to the cells to treat the cells. The reference compounds ETV and Peg-IFN-α2a for the PHHs were each prepared at one concentration, with three replicate wells.
The PBMC supernatants were each prepared at 4 test concentrations, diluted at a ratio of 1:4, and then added to the cells. Three replicate wells were made for each test condition. The culture medium was replaced with a fresh culture medium containing the PBMC supernatants and the reference compounds on days 5, 7, 9, and 11. On day 13, the cell supernatants were collected and the cell viability was detected using CCK-8.
The content of HBV DNA in the supernatants was determined by qPCR according to the kit instructions. HBsAg and HBeAg levels in the supernatants were determined by ELISA.

[8] = C57BL/6 mice, single intragastric administration
[9] = ICR, mouse, liver, oral, 10 mg/kg
[10] = ICR, mouse, liver/plasma, oral, 10 mg/kg
[11] = ICR, mouse, plasma, oral, 10 mg/kg

Chain of hERG potassium channel (Q12809 whole entry): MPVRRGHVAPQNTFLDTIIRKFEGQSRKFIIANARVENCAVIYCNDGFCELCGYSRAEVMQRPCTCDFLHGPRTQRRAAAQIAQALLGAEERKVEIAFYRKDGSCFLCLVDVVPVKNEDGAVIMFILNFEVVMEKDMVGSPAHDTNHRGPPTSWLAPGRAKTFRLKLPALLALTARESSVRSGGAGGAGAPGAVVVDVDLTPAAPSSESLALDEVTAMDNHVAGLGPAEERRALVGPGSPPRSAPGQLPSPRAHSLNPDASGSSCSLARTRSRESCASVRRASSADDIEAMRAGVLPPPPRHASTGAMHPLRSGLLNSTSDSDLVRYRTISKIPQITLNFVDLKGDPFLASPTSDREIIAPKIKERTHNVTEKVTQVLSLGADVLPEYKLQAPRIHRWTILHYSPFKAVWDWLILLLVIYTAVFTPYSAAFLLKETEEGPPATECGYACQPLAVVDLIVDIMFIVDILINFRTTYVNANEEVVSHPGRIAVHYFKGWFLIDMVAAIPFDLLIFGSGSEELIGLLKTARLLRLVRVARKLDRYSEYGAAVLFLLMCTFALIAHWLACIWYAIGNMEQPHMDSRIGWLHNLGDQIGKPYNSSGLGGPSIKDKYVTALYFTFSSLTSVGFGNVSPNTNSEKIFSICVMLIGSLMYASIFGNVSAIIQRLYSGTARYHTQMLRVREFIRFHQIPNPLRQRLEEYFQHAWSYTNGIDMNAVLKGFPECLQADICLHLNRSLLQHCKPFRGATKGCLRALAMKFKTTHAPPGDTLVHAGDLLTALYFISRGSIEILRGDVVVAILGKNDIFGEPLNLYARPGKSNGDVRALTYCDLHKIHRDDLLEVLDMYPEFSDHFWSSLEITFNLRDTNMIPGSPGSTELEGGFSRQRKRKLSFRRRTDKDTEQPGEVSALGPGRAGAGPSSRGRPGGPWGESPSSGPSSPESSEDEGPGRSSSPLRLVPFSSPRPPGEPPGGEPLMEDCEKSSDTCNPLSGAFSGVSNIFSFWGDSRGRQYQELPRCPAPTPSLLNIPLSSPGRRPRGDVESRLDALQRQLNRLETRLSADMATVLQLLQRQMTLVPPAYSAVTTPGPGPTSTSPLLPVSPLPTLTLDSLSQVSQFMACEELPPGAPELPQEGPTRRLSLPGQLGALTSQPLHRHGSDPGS

In the case of `COCCNc1nc(N)nc2ccc(Cc3ccc(CN(C)C)cc3)nc12` [Compound I], the IC50 (hERG potassium channel) is reported as 17.2 µM, the “mRNA expression level of interferon-related genes” value [1] is reported as “significantly induced an increase” and the ALB level ([2]; 10 mpk group at 2 h) is reported as “significantly lower than that of the control group”. The AST levels ([2]; all administration groups, no statistically significant differences) was “exceeded the normal reference range”, the ALP levels ([2]; all dose groups) was “within the normal reference value range” and the GGT levels ([2]; all dose groups) was “within the normal reference value range”. For the same compound, the “ALT elevation by clinical adverse reaction grading” value ([2]; single administration, Grade 1 AE = ALT exceeding three times the normal value) was “did not result in ALT elevation to grade 1 AE”, the ALT ([2]; whole blood, 3/10/20 mpk i.g. single dose, 1 h, 2 h, 4 h) was “increased in all groups” and the “expression level of IP-10” value ([3]; 3 mpk i.g. single dose) was “increased first, then decreased, and then increased from 1 h to 4 h”. The “expression levels of IL-6, TNF-α, and IFN-α” value ([3]; 3 mpk i.g. single dose) was “decreased from 1 h to 4 h”, the “expression level of IP-10” value ([3]; 10 mpk i.g. single dose) was “peaked at 2 h and decreased at 4 h” and the “expression levels of IL-6, TNF-α, and IFN-α” value ([3]; 10 mpk i.g. single dose) was “increased from 1 h to 4 h”. The “expression levels of IL-6, TNF-α, IFN-α, and IP-10” value ([3]; 20 mpk i.g. single dose) was “peaked at 2 h, and decreased at 4 h”, the Gross necropsy (in vivo; 10 mg/kg, group 1, male animal No. 46) was “enlarged spleen” and the Cage-side observation (in vivo; 10 mg/kg, group 1, male animal No. 46, day 2) was “mild hunched posture”. The Gross necropsy (in vivo; 40 mg/kg, group 4, female animal No. 2) was “enlarged spleen”, the rectal temperature (in vivo; 2 h after treatment, significant difference vs vehicle group, returned to normal 4 h, 8 h and 24 h) was “decreased” and the “Adverse reactions at maximum tolerated dose/probability” value (in vivo; [8]) was “No”. For the same compound, the “Weight loss at maximum tolerated dose: whether recovered” value (in vivo; [8]) was “Yes”, the “Weight loss rate at maximum tolerated dose” value (in vivo; [8]) was 12.5% and the “With or without mouse death” value (in vivo; [8]) was “No”. For the same compound, the spleen weight (in vivo; female animals, 30 mg/kg, compared with vehicle group) was “significantly increased”, the body weight (in vivo; male and female animals, 10-40 mg/kg single administration, began to recover from day 3 to day 7) was “decreased after the single administration” and the MTD at 168 h (in vivo; mouse, in vivo, po) was 40 mg/kg. For the same compound, the “maximum body weight loss” value (Hep3B-luc) was 8.0%, the “Mean drug concentration (liver)” value ([4]; 0.25h) was 3416 ng/g and the “Mean drug concentration (plasma)” value ([4]; 0.25h) was 45.4 ng/mL. For the same compound, the “Mean drug concentration (liver)” value ([4]; 1 h) was 2340 ng/g, the “Mean drug concentration (plasma)” value ([4]; 1 h) was 25.9 ng/mL and the “Mean drug concentration (liver)” value ([4]; 4h) was 263 ng/g. The “Mean drug concentration (plasma)” value ([4]; 4h) was 10.7 ng/mL, the “Mean drug concentration (liver)” value ([4]; 24h) was 35.6 ng/g and the “Mean drug concentration (plasma)” value ([4]; 24h) was 1.49 ng/mL. It also gave an AUC(0-t) at 24 h ([4]; mouse, po, 10 mg/kg, AUC0-t (liver)) of 9480 ng·h/mL, an AUC(0-t) at 24 h ([4]; mouse, po, 10 mg/kg, AUC0-t (plasma)) of 206 ng·h/mL and a half-life at 1 µM (in vitro) of 1.7 h. The microsomal CLint at 1 µM (in vitro) was 13.7 µL/min/mg, the mouse death (H22-luc; QW × 3) was “One mouse in the compound I group died from ascites on day 20” and the TGI (H22-luc; QW × 3, BLI 21 days post-dose, P < 0.0001) was 87.0%.

For `CNC(=O)c1cc(Oc2ccc(NC(=O)Nc3ccc(Cl)c(C(F)(F)F)c3)cc2)ccn1` [sorafenib], the ORR [5] is listed as 7%, the mOS [5] is listed as 14.7 months and the median survival ([6]; patients with advanced unresectable HCC (N = 602), placebo 7.9 months) is listed as 10.7 months. For the same compound, the progression-free survival ([6]; placebo 84 days) was 167 days.

With `CCCC[C@](C)(CO)Nc1nc(N)nc2cc(F)cnc12` [GS-9688, reference compound] the IFN-α stimulating activity [7] was “essentially failed to activate IFN-α”, the “Mean drug concentration (liver)” value ([4]; 24h) was “BLOQ” and the “Mean drug concentration (plasma)” value ([4]; 24h) was “BLOQ”. It also gave a concentration at 0.25 h [4, 9] of 907 ng/g, a concentration at 1 h [4, 9] of 224 ng/g and a concentration at 4 h [4, 9] of 207 ng/g. The AUC(0-t) ([4]; ICR, mouse, liver, po, 10 mg/kg) was 1180 ng·h/mL, the Kp [4, 10] was 3.5 and the Kp at 0.25 h [4, 10] was 2.49. For the same compound, the Kp at 1 h [4, 10] was 3.16, the Kp at 4 h [4, 10] was 15 and the Kp ([4]; ICR, mouse, liver/plasma, po, 10 mg/kg) was 3.5. The concentration at 0.25 h [4, 11] was 364 ng/mL, the concentration at 1 h [4, 11] was 70.9 ng/mL and the concentration at 4 h [4, 11] was 13.8 ng/mL. It also gave an AUC(0-t) ([4]; ICR, mouse, plasma, po, 10 mg/kg) of 336 ng·h/mL.

For `C=C1[C@H](CO)[C@@H](O)C[C@@H]1n1cnc2c(=O)[nH]c(N)nc21` [ETV, entecavir, reference compound], the “levels of surface antigens HBeAg and HBsAg” value (hepatitis B virus (HBV); supernatant ELISA day 13) was “did not reduce” and the “level of HBV DNA” value (hepatitis B virus (HBV); supernatant qPCR day 13) was “significantly inhibited”.
